Results on 5 compounds are retold here after patent US7605131B2, “EML4-ALK fusion gene” (Astellas Pharma Inc., priority 2007, dated 2009).

In one assay the test system is v3 expressing 3T3 cells. Nature of the assay: Anchorage independent growth of v3 expressing 3T3 cells (spheroid plate, CellTiter-Glo). The format is cell-based. Here is the method: Measurement for anchorage independent cell growth (colony method, etc) has been known to be a system for investigating an antitumor effect (pharmacologic effect) of compounds (Clinical Oncology, second edition, Cancer and Chemotherapy Publishers Inc.). In place of the colony method, there is a following method using spheroid plates for measuring the growth of non-attached cells.
(§1) The v3 expressing 3T3 cells (Example 2) were seeded to a 96 well spheroid plate (Sumilon Celltight Spheroid 96U, Sumitomo Bakelite Inc.) at 3000 cells per well in a medium (Invitrogen) containing 10% fetal bovine serum. […] At the same time, cells were counted before the addition of drugs (Day 0). Then, cells were cultured under 5% CO2, at 37° C. for 3 days, mixed with a reagent for measuring cell number (CellTiter-Glo™ Luminescent Cell Viability Assay; Promega Inc.) stirred for 20 minutes, and the measurements (day 3) were carried out using a luminometer (ML3000 microtiter plate luminometer; Dynatech Laboratories Inc.).
Background: In ATP-based viability assays light output follows the ATP content of the culture.

The next assay relates to NCI-H2228 cells. The assay is described as follows: Anchorage independent growth of NCI-H2228 cells (spheroid plate). The format is cell-based, human. How it is done:
as §1
DMSO (control) or compound A-D was added to the NCI-H2228 cells at 10 μM or 30 nM and this investigation was performed by a similar manner described as in Example 5, except cells were cultured for 5 days after the addition of drugs.

Assay [1] deals with T1, EML4-ALK fusion polypeptide v3 (Homo sapiens, UniProt Q9UM73, D1529E/I1461V/K1491R). The assay is described as follows: Intracellular autophosphorylation of EML4-ALK fusion polypeptide v3 in v3 expressing 3T3 cells. As to conditions: 4 hours. The format is cell-based. An excerpt: The EML4-ALK fusion polypeptide v3 expression vector (designated as EML4-ALKv3/pMXS) was constructed by subcloning the insert of the EML4-ALKv3/pT7Blue-2 in pMXS plasmid (JBC 275, 24945-24952, 2000). Also, using the EML4-ALKv3/pT7Blue-2, an expression vector (designated as FLAG-EML4-ALKv3/pMX-iresCD8) which expresses both EML4-ALK fusion polypeptide v3 having the FLAG tag at the N-terminus and CD8 was constructed by subcloning the insert in pMX-iresCD8 plasmid (JBC 276, 39012-39020, 2001). The 3T3 cells transfected with the EML4-ALKv3/pMXS described above were inoculated subcutaneously to nude mice at 5×10^6 cells/mouse and observed after 20 days. […] Hereinafter, the 3T3 cells in which EML4-ALK fusion polypeptide v3 is expressed are designated as the v3 expressing 3T3 cells.

In assay [2] the target is T1, EML4-ALK fusion polypeptide v3. Nature of the assay: In vitro autophosphorylation of purified EML4-ALK fusion polypeptide v3 (immunoblot, anti-phosphorylated ALK antibody). The format is biochemical. Also on record: expresses both EML4-ALK fusion polypeptide v3 having the FLAG tag at the N-terminus and CD8; made in house; host or cells: mouse BA/F3 cells infected with FLAG-EML4-ALKv3/pMX-iresCD8 retrovirus. Here is the method:
(§2) A recombinant retrovirus was produced according to a method of previous report (BBRC 356, 723-726, 2007) using FLAG-EML4-ALKv3/pMX-iresCD8. Mouse lymphatic cell line BA/F3 cells were infected therewith. The EML4-ALK fusion polypeptide v3 expressing BA/F3 cells were cultured in RPM1640 medium containing 10% of fetal bovine serum. To prepare the EML4-ALK fusion polypeptide v3, about 2×10^9 cells were collected. After washing 3 times with PBS, cells were lysed in a lysis solution (50 mM Tris.HCl (pH7.4), 150 mM NaCl, 1% Triton X100, 5 mM EDTA, 5 mM EGTA, 1 mM NaVO4, 1 mM DTT and protease inhibitor cocktail complete). The EML4-ALK fusion polypeptide v3 present in the supernatant obtained after a centrifugation was purified using ANTI-FLAG M2 Affinity Gel (SIGMA-ALDRICH Inc) according to the method described in the product information document. For washing and elution, the washing solution (50 mM Tris.HCl (pH7.4), 250 mM NaCl, 0.05% Brij35, 1 mM EDTA, 1 mM EGTA, 1 mM NaVO4, 1 mM DTT, complete) and the elution solution (50 mM Tris.HCl (pH7.4), 150 mM NaCl, 0.05% Brij35, 1 mM DTT, 0.5 mg/mL FLAG peptide) were used, respectively. Immunoblotting using anti-ALK antibody and anti FLAG M2 antibody (SIGMA-ALDRICH Inc.) and silver staining were carried out for the eluate to detect the EML4-ALK fusion polypeptide v3.
(§3) The EML4-ALK fusion polypeptide v3 purified as described above was diluted in a reaction solution (15 mM Tris HCl (pH7.4), 0.25 mM MgCl2, 0.01% Tween-20, 2 mM DTT), and then ATP was not added or ATP 20 μM was added. The respective mixtures were reacted at room temperature for 1 hour. After the reaction, the auto phosphorylated EML4-ALK fusion polypeptide v3 and the EML4-ALK fusion polypeptide v3 were detected by immunoblotting using anti-phosphorylated ALK antibody, which recognizes specifically the product phosphorylated at the 1604th tyrosine residue of ALK, and anti-ALK antibody, and quantitated by an image analysis system (VersaDoc Imaging System; Bio-Rad Inc.). […]
For orientation: In western blotting, separated proteins are transferred to a membrane and probed.

The target is the same in assay [3]. The assay is described as follows: In vitro phosphorylation of peptide substrate by purified EML4-ALK fusion polypeptide v3 (HTRF KinEASE-TK). The format is biochemical. Further details: expresses both EML4-ALK fusion polypeptide v3 having the FLAG tag at the N-terminus and CD8; made in house; host or cells: mouse BA/F3 cells infected with FLAG-EML4-ALKv3/pMX-iresCD8 retrovirus. The settings on record: TK substrate 1. Here is the method:
as §2, §3
In general terms: TR-FRET usually uses a lanthanide donor and a delayed reading to cut background.

A further assay addresses T2, NPM-ALK (Homo sapiens, UniProt Q9UM73).
T2 construct: the other entry of the earlier key: NPM1 (P06748, Nucleophosmin)
The settings on record: reported in Laboratory investigation 2005, Vol. 85, p. 1544-1554; cited from earlier work.

Another assay relates to NCI-H2228. The assay is described as follows: Anti-tumor test against NCI-H2228 subcutaneous tumor in NOD/SCID mice. The format is in vivo. As to conditions: 10 mg/kg orally once a day for 14 days, solvent group start day = 100% inhibition, finish day = 0%. Here is the method: 3×10^6 cells of NCI-H2228 suspended in 50% BD Matrigel™ (BD Biosciences) in PBS were inoculated subcutaneously by injection to the back of 5 weeks old male NOD/SCID mice (Japan Charles River Inc.). […] Administrations were performed once a day for 14 days, and body weight and tumor size were measured every three or four day. Tumor volume was calculated using the following formula. [Tumor volume (mm^3)]=[Tumor major axis (mm)]×[tumor minor axis (mm)]^2×0.5

The mark [4] stands for this setting: Mus musculus, NIH3T3, read-out: Inhibitory activity on v3 expressing 3T3 cells.
Where [5] appears, read: Homo sapiens, NCI-H2228, read-out: Inhibitory activity on NCI-H2228 cells.

The structures appear in SMILES notation.

T1 sequence (Q9UM73 with tags, fused parts or gaps I1461V/K1491R/D1529E): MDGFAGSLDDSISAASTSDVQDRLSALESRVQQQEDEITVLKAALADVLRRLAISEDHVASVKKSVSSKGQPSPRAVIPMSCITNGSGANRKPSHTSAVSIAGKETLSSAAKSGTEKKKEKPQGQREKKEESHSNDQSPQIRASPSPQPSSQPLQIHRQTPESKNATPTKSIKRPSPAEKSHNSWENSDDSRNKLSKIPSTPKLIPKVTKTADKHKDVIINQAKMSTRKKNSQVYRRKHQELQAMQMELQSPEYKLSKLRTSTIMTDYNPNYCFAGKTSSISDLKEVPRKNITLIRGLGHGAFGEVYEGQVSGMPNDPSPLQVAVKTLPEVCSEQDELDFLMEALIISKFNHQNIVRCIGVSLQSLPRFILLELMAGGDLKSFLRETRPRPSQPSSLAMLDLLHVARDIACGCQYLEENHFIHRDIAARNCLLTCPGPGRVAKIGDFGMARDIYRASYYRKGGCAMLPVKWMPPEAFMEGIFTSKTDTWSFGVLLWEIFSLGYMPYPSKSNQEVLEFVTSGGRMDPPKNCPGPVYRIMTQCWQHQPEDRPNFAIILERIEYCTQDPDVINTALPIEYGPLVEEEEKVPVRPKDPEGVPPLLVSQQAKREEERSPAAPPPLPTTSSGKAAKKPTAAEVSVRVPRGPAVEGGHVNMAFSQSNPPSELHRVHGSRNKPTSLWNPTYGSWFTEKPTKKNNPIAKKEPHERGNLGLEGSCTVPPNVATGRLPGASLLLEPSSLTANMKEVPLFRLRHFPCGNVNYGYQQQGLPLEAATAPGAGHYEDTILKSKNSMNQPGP
T2 sequence (Q9UM73 with tags, fused parts or gaps): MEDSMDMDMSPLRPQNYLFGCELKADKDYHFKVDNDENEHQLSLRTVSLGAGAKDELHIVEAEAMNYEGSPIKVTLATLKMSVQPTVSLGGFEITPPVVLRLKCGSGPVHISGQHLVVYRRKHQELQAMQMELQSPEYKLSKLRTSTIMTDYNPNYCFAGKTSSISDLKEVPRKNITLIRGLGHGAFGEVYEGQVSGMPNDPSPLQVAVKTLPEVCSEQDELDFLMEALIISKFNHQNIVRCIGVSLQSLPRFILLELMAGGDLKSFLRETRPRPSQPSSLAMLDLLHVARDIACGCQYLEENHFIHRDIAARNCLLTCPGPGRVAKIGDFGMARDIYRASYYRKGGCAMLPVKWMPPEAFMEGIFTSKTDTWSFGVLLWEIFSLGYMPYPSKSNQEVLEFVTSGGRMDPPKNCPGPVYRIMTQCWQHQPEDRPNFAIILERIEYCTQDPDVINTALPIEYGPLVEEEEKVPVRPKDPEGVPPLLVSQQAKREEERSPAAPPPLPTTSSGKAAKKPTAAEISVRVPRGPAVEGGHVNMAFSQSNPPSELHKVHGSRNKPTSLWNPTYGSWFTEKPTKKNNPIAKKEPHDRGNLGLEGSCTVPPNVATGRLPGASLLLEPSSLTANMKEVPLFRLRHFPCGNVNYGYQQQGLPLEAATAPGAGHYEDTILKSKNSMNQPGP

Take `CNS(=O)(=O)c1ccccc1Nc1nc(Nc2ccc(N3CCN(C)CC3)cc2OC)ncc1Br` [D, 2-[(5-bromo-2-{[2-methoxy-4-(4-methylpiperazin-1-yl)phenyl]amino}pyrimidin-4-yl)amino]-N-methylbenzenesulfonamide]: the results for the inhibition at 0.03 µM with v3 expressing 3T3 cells (setting [4]) and in the assay on NCI-H2228 cells (setting [5]) were 206% and 141%, respectively. The inhibition at 0.01 µM in assay [1] (NIH3T3, final concentration 10 nM) stood at 106%; in assay [2] (final concentration 10 nM), 107%; in assay [3] (final concentration 10 nM) it was 98%.
Regarding `O=C(COc1ccc(OC(F)(F)F)cc1)NCc1nc(C(=O)NCCc2cccc(Cl)c2)cs1` [B, N-[2-(3-chlorophenyl)ethyl]-2-[({[4-(trifluoromethoxy)phenoxy]acetyl}amino)methyl]-1,3-thiazole-4-carboxamide], the inhibition at 10 µM in the assay with v3 expressing 3T3 cells (setting [4]) came to 53%; with NCI-H2228 cells (setting [5]) it was 102%; in assay [1] (NIH3T3, final concentration 10 μM), 76%; in assay [2] (final concentration 10 μM), 100%; in assay [3] (final concentration 10 μM) it was 77%.
With `COc1cc2ncnc(Nc3ccc(O)c(Br)c3)c2cc1OC` [A, 4-[(3′-Bromo-4′-hydroxyphenyl)amino]-6,7-dimethoxyquinazoline], in the assay with v3 expressing 3T3 cells (final concentration 10 μM, 3 days, cell number at Day 0 = 100% inhibition, Day 3 = 0%), the “Inhibitory activity on v3 expressing 3T3 cells” value stood at 172%. The “Inhibitory activity on NCI-H2228 cells” value in the assay on NCI-H2228 cells (final concentration 10 μM, 5 days, cell number at Day 0 = 100% inhibition, Day 5 = 0%) was determined as 164%. The “Inhibition on autophosphorylation (v3 expressing 3T3 cells)” value in assay [1] (final concentration 10 μM) is 94%. This compound also yielded an Inhibition on autophosphorylation in assay [2] (final concentration 10 μM) of 100%. On NPM-ALK, the “Inhibition of the activity of NPM-ALK” value is listed as “inhibit the activity of NPM-ALK”. The “Inhibition on peptide substrate” value in assay [3] (final concentration 10 μM) is on record as 98%.
As for `COc1cc2ncnc(Nc3ccc(O)cc3)c2cc1OC` [WHI-P131, 4-(4′-Hydroxyphenyl)amino-6,7-dimethoxyquinazoline], the “Inhibition of the activity of NPM-ALK” value on NPM-ALK was “inhibit the activity of NPM-ALK”.
Take `COc1cc(N2CCC(N3CCN(C)CC3)CC2)ccc1Nc1ncc(Cl)c(Nc2ccccc2S(=O)(=O)C(C)C)n1` [Compound C, 5-chloro-N^4-[2-(isopropylsulfonyl)phenyl]-N^2-{2-methoxy-4-[4-(4-methylpiperazin-1-yl)piperidin-1-yl]phenyl}pyrimidine-2,4-diamine]: the inhibition at 0.03 µM is 182% in the assay with v3 expressing 3T3 cells (setting [4]) and 137% in the assay with NCI-H2228 cells (setting [5]). The “Inhibition rate of tumor growth (tumor volume) of NCI-H2228” value with NCI-H2228 was found to be 132%.
